Reference: patent publication US20040132970A1, “Dermaseptin-derived peptides and their use in delivery systems” (priority 2002, published 2004)
“Also recorded” adds a separate entry of the source. Ends that are not written are not given here.

How the values were obtained:
[1] = tested on: permeabilized HeLa cells; assay: Nuclear uptake in digitonin-permeabilized cells, fluorescence microscopy; format: cell-based; parameters: key to Nuclear Import of PV-S413 / Nuclear uptake: +: Most of the nuclei in the microscopic fields are highly fluorescent; −: No fluorescence in the nuclei; +/−: Most of the nuclei are very weakly fluorescent
Protocol: FIGS. 2a-d: Nuclear import of PV-S413 in permeabilized HeLa cells: fluorescence microscopy observations. All experimental conditions were as described in Experimental Procedures and in legend to Table 3. Digitonin permeabilized HeLa cells were incubated in the presence of reticulocyte extract at 30° C. for 1 hour with 1 μM of the following:
HeLa cells were cultivated on 10 mm cover slips to sub confluent density and then permeabilized with digitonin as described previously [Friedler, A. et al. (1998) Biochemistry 37, 5616-5622]. The cells were incubated with the peptides and nuclear import was followed by fluorescence microscopy as described [Friedler, A. et al. (1998) id ibid.].
Experimental conditions of nuclear import in digitonin-permeabilized cells (complete system) were as described. PV-S413 was used at 1 mM and all incubations were performed at 37° C. in the presence of reticulocyte lysate, unless otherwise indicated. Additions: GTPγS (20 mM) and the following unlabeled peptides SV40 T-Ag NLS, S413 and PV-S413 at a ratio of 1:100 (mol/mol).
Unlabeled peptides RR-S413, SV40 T-Ag-NLS, Rev and Tat ARM were added at a peptide ratio of 1:100 (mole/mole).

[2] = tested on: HeLa cells; assay: Penetration of Lissamine Rhodamine-labeled synthetic peptides into intact cultured cells, fluorescence microscopy; format: cell-based; conditions: for cell penetration and intracellular localization in intact HeLa cells (FIG. 1): 37° C., 5 μM; for cell penetration and intracellular localization in intact HeLa cells (FIG. 1) / cell penetration and nuclear accumulation in intact HeLa cells (FIG. 3): 30 minutes; for cell penetration and nuclear accumulation in intact HeLa cells (FIG. 3): 10 μM Rev at 37° C., 2 μM of RR-S413; for co-penetration of free fluorophore LR into intact HeLa cells: mixture of unlabeled S413 and free LR, versus LR alone
Protocol: HeLa cells (3×10^4 per well) were cultured on eight-well Lab-Teck cover slips (Nunc Inc.) or on 10-mm cover slips to sub confluent density. Following the removal of the culture medium, the cells were washed three times with PBS and then exposed to different concentrations of the Lissamine Rhodamine-labeled peptides at 37° C. or at 4° C. At the end of the incubation period the cells were washed three times in PBS and fixed in 4% (v/v) formaldehyde dissolved in PBS. Fixed cells were examined by fluorescence microscopy (Zeiss Germany, a 40× objective; Apoplan) or by confocal microscopy using an MRC 1024 confocal imaging system (Bio-Rad). The microscope (Axiovert 135M; Zeiss Germany, a 63× objective; Apoplan; NA 1.4) was equipped with an argon ion laser for Rhodamine excitation at 514 nm (emission 580).
Following fixation, the various samples were examined by fluorescence microscopy.
Synthetic peptides bearing Tat and Rev ARM sequences were synthesized and fluorescently labeled as described. […]

[3] = tested on: cultured cells; assay: Effect of the peptides on cell viability (Trypan Blue); format: cell-based; conditions: for toxicity to cells, Trypan Blue test: at the concentrations used, 37° C., 30 minutes; for toxicity to the cells (cell viability): at concentrations up to about 15 μM
Protocol: Following incubation at 37° C. for 30 minutes 100 ml, Trypan Blue solution was added (0.4% in HBSS buffer; Sigma) and HBSS buffer (5:3) and viable cells counted after 5 minutes of continuous stirring. Cell death was not greater than 20%.

[4] = tested on: HeLa cells; assay: Microinjection of the peptides into HeLa cells, nuclear import; format: cell-based; conditions: 1 μM, 2 hours after incubation at 37° C.
Protocol: FIGS. 4a-d: Nuclear import of S413 and RR-S413 in microinjected cells. HeLa cells were microinjected with the fluorescently labeled peptides S413 and RR-S413 (1 μM). The injection mixture also included fluorescently labeled BSA as an injection control (data not shown). Photos were taken 2 hours after incubation at 37° C.
HeLa cells were microinjected with either S413 or with RR-S413 using the CompInject AIS2 automated microinjection system (Cell Biology Trading, Hamburg, Germany) as described previously [Neumann, M. et al. (2001) J. Cell Sci. 114, 1717-29] using a microinjection method developed by Graessmann et al., as described [Graessmann, M. and Graessmann, A. (1983) Methods Enzymol. 101, 482-492].

[5] = tested on: erythrocytes; conditions: cited from earlier work

PKKKRKVALWKTLLKKVLKA-NH2 [PV-S413]
ATP dependence of nuclear import in permeabilized HeLa cells [1]: ATP-dependent | nuclear import in permeabilized HeLa cells at 4° C. ([1]; 4° C.): did not occur | Nuclear Import of PV-S413 ([1]; (i) Complete System: 1 mM peptide, 37° C., reticulocyte lysate): + | Nuclear Import of PV-S413 ([1]; (ii) Hexokinase (ATP depleted system)): − | Nuclear Import of PV-S413 ([1]; (iii) As (i), in the absence of reticulocyte extract): − | Nuclear Import of PV-S413 ([1]; (iv) As (i) at 4° C.): − | Nuclear Import of PV-S413 ([1]; (v) As (i) + GTPγS (20 mM)): − | Nuclear Import of PV-S413 ([1]; (vi) As (i) + unlabeled SV40-NLS, 1:100 (mol/mol)): +/− | Nuclear Import of PV-S413 ([1]; (vii) As (i) + unlabeled S413, 1:100 (mol/mol)): + | Nuclear Import of PV-S413 ([1]; (viii) As (i) + unlabeled PV-S413, 1:100 (mol/mol)): +/− | effect of GTPγS, WGA and excess of free unlabeled SV40 T-Ag-NLS peptide on nuclear import ([1]; permeabilized HeLa cells): inhibited | intracellular localization in intact HeLa cells at 4° C. ([2]; 4° C.): retained in the cytoplasm | cell penetration and intracellular localization in intact HeLa cells (FIG. 1) [2]: cell penetration and accumulation within the cells' nuclei | toxicity to cells, Trypan Blue test [3]: not toxic

RQARRNRRRALWKTLLKKVLKA-NH2 [RR-S413]
localization following microinjection into intact HeLa cells (FIG. 4) [4]: accumulated within the intranuclear space; also recorded: accumulated in the nuclei | Nuclear uptake ([1]; ATP depleted cells): − | Nuclear uptake ([1]; In the absence of cytosolic factors): + | Nuclear uptake ([1]; In the presence of cytosolic factors): +/− | Nuclear uptake ([1]; In the presence of unlabeled RR-S413, 1:100 (mole/mole)): +/− | Nuclear uptake ([1]; In the presence of unlabeled Rev-ARM, 1:100 (mole/mole)): − | Nuclear uptake ([1]; In the presence of unlabeled SV40 T-Ag NLS, 1:100 (mole/mole)): + | Nuclear uptake ([1]; In the presence of unlabeled Tat-ARM, 1:100 (mole/mole)): +/− | Nuclear uptake ([1]; Incubation in 4° C.): − | nuclear import in digitonin permeabilized HeLa cells ([1]; no addition of cytosolic extract required): Nuclear import was also observed | cell penetration and nuclear accumulation in intact HeLa cells (FIG. 3) [2]: readily penetrated into intact HeLa cells and accumulated—within a short period of time—within the nuclei of these cells | toxicity to the cells (cell viability) [3]: not toxic

VKRKKKPALWKTLLKKVLKA-NH2 [rPV-S413]
nuclei accumulation in permeabilized HeLa cells ([1]; both in the presence and in the absence of the cytosolic extract): either did not accumulate or showed poor nuclei accumulation | cell penetration and intracellular localization in intact HeLa cells (FIG. 1) [2]: very little, if any, accumulation within the cells' nuclei/nucleoli

ALWMTLLKKVLKAAAKAALNAVLVGANA-COOH (ALWMTLLKKVLKAAAKAALNAVLVGANA-OH) [Peptide S4, reference compound]
toxicity to erythrocytes [5]: highly toxic

CCN(CC)c1ccc2c(-c3ccc(S(=O)(=O)O)cc3S(=O)(=O)[O-])c3ccc(=[N+](CC)CC)cc-3oc2c1 [L-Rhodamine, Lissamine Rhodamine, reference compound]
co-penetration of free fluorophore LR into intact HeLa cells [2]: did not occur

RQARRNRRRC-NH2 [Rev-ARM, reference compound]
cell penetration and nuclear accumulation in intact HeLa cells (FIG. 3) [2]: cell permeable | toxicity to the cells (cell viability) [3]: not toxic

GRKKRRQRRRPPQC-NH2 [Tat-ARM, reference compound]
toxicity to the cells (cell viability) [3]: not toxic

ALWKTLLKKVLKAPKKKRKV-NH2 [Peptide S413-PV]
toxicity to cells, Trypan Blue test [3]: not toxic

ALWKTLLKKVLKA-NH2 [Peptide S413]
localization following microinjection into intact HeLa cells (FIG. 4) [4]: retained in the cytoplasm; also recorded: remained in the cytoplasm | penetration into nuclei of digitonin permeabilized HeLa cells (FIG. 2) ([1]; 1 μM, reticulocyte extract, 30° C., 1 hour): did not penetrate | time of incubation within which penetration into cultured HeLa cells occurs ([2]; 1 μM of the peptide, either at 37° C. or at 4° C.): ≤ 5 min | cell penetration and intracellular localization in intact HeLa cells (FIG. 1) [2]: accumulated within the cells' cytoplasm and not in the cells' nuclei | nuclear localization after long incubation ([2]; 24 hours after incubation at 37° C.): very little, if any, nuclear localization | penetration into intact cells in ATP depleted cells ([2]; ATP depleted cells): occurred | co-penetration of free fluorophore LR into intact HeLa cells [2]: a few intracellular fluorescent dots | toxicity to cells, Trypan Blue test [3]: non-toxic
